Laboratory results taken from PMC12591169 (Advanced Science, 2025).
“Also recorded” adds a separate entry of the source. Non-standard residues stand in square brackets, D forms with d. pT = C[C@@H](OP(=O)(O)O)[C@H](N)C(=O)O

Experiments:
14‐3‐3σ/ERα complex = test: HDX‐MS of 14‐3‐3σ/ERα complex with and without FC‐A; assay type: binding
Procedure: (§1) Maximally deuterated samples were analyzed in triplicate.
(§2) Eluted peptides were directly infused into the mass spectrometer. Mobile phases were kept on ice.
(§3) (Thermo Fisher Scientific). […] Peptides with >20 residues were excluded from analysis.

14-3-3σ/ERα = details: 14-3-3:ERα:FC-A 1:1:10, 14‐3‐3 5 µM, FC‐A 50 µM, 100 mM ammonium acetate (pH 6.8), 0.5% DMSO; 3 replicates
Procedure: (§4) LC‐MS grade dimethyl sulfoxide (DMSO) was purchased from Fisher Scientific. Lypholized ERα581‐595 15mer peptide (Ac‐[…](pT)V‐COOH, Synpeptide Ltd) and lypholized LRRK2_928‐942 15mer peptide (Ac‐NLQRHSN(pS)LGPIFDH‐CONH2, Synpeptide Ltd) were diluted into 100 mM ammonium acetate to make peptide stocks of 1 mM and stored at ‐20 °C prior to use. Fusicoccin A (FC‐A) was provided as a gift from Yusuke Higuchi. It was obtained as a metabolite of wildtype Phomopsis amygdali and genetically modified Phomopsis amygdali Niigata‐2 as reported previously^[ [62] ^] FC‐A stocks were stored in 100% DMSO at […] at ‐80 °C. 14‐3‐3 was buffer exchanged into 100 mM ammonium acetate (pH 6.8) using a 10 kDa molecular weight cut‐off Amicon Ultra centrifugal filter (Merck Millipore) and stored at ‐80 °C prior to use. To form the 14‐3‐3/ERα complex, 14‐3‐3 (5 µM) was incubated with ERα (1:1 ratio) in the presence and absence of FC‐A (50 µM) (1:1:10 ratio) for 10 min on ice or at 10 min, 5 h or 24 h at room temperature to mimic HDX conditions (Figure S16, Supporting Information). To form the 14‐3‐3/LRRK2 complex, 14‐3‐3 (5 µM) was incubated with LRRK2 (1:2 ratio) in the presence and absence of FC‐A (50 µM) (1:2:10 ratio). 14‐3‐3 binding ratios were optimized to enable single and double‐bound complex formation. 14‐3‐3 protein complexes were directly infused into the mass spectrometer. […]

14‐3‐3/LRRK2 complex [1] = test: Native MS of 14‐3‐3σ/LRRK2 with FC‐A; assay type: binding; details: 14‐3‐3 5 µM, LRRK2 1:2 ratio, FC‐A 50 µM (1:2:10); Figure S14e; proposed explanation of HDX protection
Procedure: as §4

14‐3‐3/LRRK2 complex [2] = details: HDX‐MS, 14‐3‐3σ 100 µM, LRRK2 200 µM, FC‐A 1 mM
Procedure: To form the 14‐3‐3/LRRK2 complex, 14‐3‐3σ in 25 mM HEPES, 200 mM NaCl, and 10 mM MgCl2 pH 8.0 (100 µM) was incubated with LRRK2 (200 µM) for 10 min on ice. To form the stabilized complex, 14‐3‐3σ (100 µM) was incubated with LRRK2 (200 µM) and FC‐A (1 mM) for 10 min on ice. Control incubations with 14‐3‐3σ (100 µM) in isolation were also performed. A final concentration of 10% DMSO was used for all experiments.
Deuterium labelling was carried out by diluting 14‐3‐3, 14‐3‐3/ERα, 14‐3‐3/ERα/FC‐A, 14‐3‐3/LRRK2 and 14‐3‐3/LRRK2/FC‐A tenfold with 100 mM ammonium acetate 99.9% D2O pD 7.2 and incubating for 10 min, 5 h, and 24 h at room temperature. The reaction was quenched by removal of 50 µL protein complex at each time‐point and adding 30 µL 4 M urea, 200 mM potassium phosphate buffer, pH 2.4, followed by flash freezing in liquid nitrogen and stored at ‐80 °C. […] Each time point was analysed in triplicate by LC‐MS with the exception of the 10‐min timepoint for LRRK2, analysed in duplicate. Non‐deuterated control samples were analysed in triplicate by LC‐MS for ERα complexes and duplicate for LRRK2 complexes.
Maximally deuterated samples were prepared by buffer exchanging 14‐3‐3 into 100 mM ammonium acetate 99.9% D2O pD 7.2 at 20 °C using a 10 kDa molecular weight cut‐off Amicon Ultra centrifugal filter (Merck Millipore). […] Maximally deuterated samples were analyzed in triplicate. […]

14‐3‐3/ERα = details: cited from earlier work
Excerpt: (§5) Overall, we have highlighted the usefulness of applying HDX‐MS to characterize molecular glues. […] This information was captured on minute‐hour HDX‐MS timescales; however, it is important to optimize HDX‐MS timescales when applying this method to study alternate protein systems. Indeed, shorter timescales might be preferential to capture the most valuable information.

[3] = test system: 14-3-3•ERα protein complex; details: ref PDB 4JDD, cited from earlier work
Excerpt: (§6) Top: Insert of the amphipathic binding groove of 14-3-3 showing binding of FC-A (green) to the 14-3-3•ERα complex (pink) (PDB 4JDD). 14-3-3σ residues involved in binding FC-A and ERα are labelled in grey. […] For illustrati ...

14-3-3•LRRK2 complex = details: Fig. S3; protein partner occupies the FC-A binding site; ref PDB 5MY9; cited from earlier work
Excerpt: as §6

14‐3‐3ζ /E6 oncoprotein = details: crystallography; cited from earlier work
14‐3‐3σ = test: HDX‐MS of 14‐3‐3σ with and without ERα or LRRK2 peptide; assay type: binding; details: for protection of 14‐3‐3σ from deuterium exchange upon peptide binding: 14‐3‐3σ 100 µM, ERα 100 µM or LRRK2 200 µM, diluted tenfold into 100 mM ammonium acetate 99.9% D2O pD 7.2, room temperature, 10 min, 5 h, 24 h, 10% DMSO, n = 3 (LRRK2 10 min: duplicate); for protection of 14‐3‐3σ from deuterium exchange at H8 upon peptide binding: H8, located distally from the binding groove
Procedure: as §1, §2, §3

14-3-3σ [4] = test: Native MS of 14‐3‐3σ with ERα; assay type: binding; details: 14‐3‐3 5 µM, 1:1 ratio, 100 mM ammonium acetate (pH 6.8), 0.5% DMSO, absence of FC-A; 3 replicates
Procedure: as §4

14‐3‐3 [5] = details: binary complex, without FC‐A; read-out: Kd for the binary complex 14‐3‐3/ERα; cited from earlier work
Excerpt: as §5

14‐3‐3 [6] = details: cited from earlier work
14‐3‐3 [7] = details: FRET; cited from earlier work
14-3-3σ [8] = target: T1, 14-3-3σ (UniProt P31947 1-248); test: HDX-MS; 14-3-3σ (100 µM) incubated with ERα peptide (100 µM) or LRRK2 peptide (200 µM), with or without FC-A (1 mM), 10 min on ice, in 25 mM HEPES, 200 mM NaCl, 10 mM MgCl2 pH 8.0, 10% DMSO; diluted tenfold in 100 mM ammonium acetate 99.9% D2O pD 7.2; labelled 10 min, 5 h and 24 h at room temperature; deuterium uptake read on 14-3-3σ peptides (pepsin/nepenthesin-2); details: both partners purified
T1 construct: 14-3-3 protein sigma, full length
T1 sequence (looked up): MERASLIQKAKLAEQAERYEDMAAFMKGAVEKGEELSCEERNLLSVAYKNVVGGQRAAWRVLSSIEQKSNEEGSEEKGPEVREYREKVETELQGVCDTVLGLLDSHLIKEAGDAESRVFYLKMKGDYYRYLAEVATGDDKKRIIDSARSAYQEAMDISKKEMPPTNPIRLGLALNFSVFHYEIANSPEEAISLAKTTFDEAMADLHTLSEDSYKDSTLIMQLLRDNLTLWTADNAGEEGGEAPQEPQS

C=CC(C)(C)OC[C@H]1O[C@H](O[C@@H]2C3=C([C@H](C)COC(C)=O)C[C@H](O)[C@]3(C)/C=C3/[C@@H](COC)CC[C@H]3[C@@H](C)[C@H]2O)[C@H](O)[C@@H](OC(C)=O)[C@@H]1O [FC‐A, Fusicoccin A]
additional protection from deuterium exchange of 14‐3‐3σ/ERα upon FC‐A addition (14‐3‐3σ/ERα complex; HDX‐MS, 14‐3‐3σ 100 µM, ERα 100 µM, FC‐A 1 mM, diluted tenfold into D2O buffer pD 7.2, room temperature, 10 min, 5 h, 24 h, 10% DMSO, n = 3): additional protection was observed in several peptides; also recorded: increased protection on H3, H7 and H9; also recorded: protection toward the N‐terminus of H3 and H5 between residues 37–45 and 117–122; also recorded: between residues 85–100 on H4 and residues 26–36 on H2; also recorded: additional protection from deuterium labelling
closure of H9 upon FC‐A addition to 14‐3‐3σ/ERα (14‐3‐3σ/ERα complex; HDX‐MS, pD 7.2, room temperature): Evidence of this H9 closure was not observed
peptides with main differences in HDX uptake, 14‐3‐3σ/ERα vs 14‐3‐3σ/ERα/FC‐A (14‐3‐3σ/ERα complex; difference plot over all time points (10 min, 5 h, 24 h)): peptides 23–35, 45-51, 71-73, 92-114 and 120-122
shift of binding equilibrium upon FC-A addition, native MS (14-3-3σ/ERα): the binding equilibrium is shifted to the fully stabilized ternary complex
interaction between FC‐A and the 14‐3‐3/LRRK2 complex (14‐3‐3/LRRK2 complex [1]): low affinity interaction
additional protection of 14‐3‐3/LRRK2 in regions of the LRRK2 binding interface upon FC‐A addition (14‐3‐3/LRRK2 complex [2]; diluted tenfold into D2O buffer pD 7.2, room temperature, 10% DMSO): No additional protection was observed in regions involved in the LRRK2 binding interface suggesting no stabilization effect
level of protection of residues 37 to 45 (FC‐A binding region) in 14‐3‐3/LRRK2 upon FC‐A addition (14‐3‐3/LRRK2 complex [2]; pD 7.2, room temperature): ~8%
increase of 14‐3‐3/ERα affinity by the molecular glue (14‐3‐3/ERα; FC‐A): > 10 fold
stabilization of 14-3-3•ERα complex by FC-A ([3]; Fig. S3, PDB 4JDD): binds and stabilizes
14-3-3σ/ERα residues interacting with FC-A ([3]; Fig. S3): N42, D215 and K122 interact with FC-A
stabilization of 14-3-3•LRRK2 complex by FC-A (14-3-3•LRRK2 complex): does not stabilize
conformational change of 14‐3‐3ζ upon addition of FC‐A (14‐3‐3ζ /E6 oncoprotein): closure of H9

Ac‐KYYITGEAEGFPA(pT)V‐COOH (Ac-KYYITGEAEGFPA[pT]V-OH) [ERα, lypholized ERα581‐595 15mer peptide, phosphorylated mimetic of estrogen receptor α]
protection of 14‐3‐3σ from deuterium exchange upon peptide binding (14‐3‐3σ): Protection from deuterium labelling occurs; also recorded: peptides located in helices H3, H7 and H9 showed significant levels of protection after 24 h
protection of 14‐3‐3σ from deuterium exchange at H8 upon peptide binding (14‐3‐3σ; pD 7.2, room temperature): protection was also observed at H8
dynamics and flexibility of 14‐3‐3 dimer interface (residues 85–100 on H4, 26–36 on H2) upon ERα binding (14‐3‐3σ; pD 7.2, room temperature): a reduction in dynamics and protein flexibility
ERα complexes with 14-3-3 observed by native MS (14-3-3σ [4]): singly and doubly bound ERα is observed in complex
Kd (14‐3‐3/ERα; in the presence of FC‐A): 100 ± 30 nM
Kd (14‐3‐3 [5]): 1600 ± 300 nM

Ac‐NLQRHSN(pS)LGPIFDH‐CONH2 [LRRK2, lypholized LRRK2_928‐942 15mer peptide, phosphorylated mimetic of leucine‐rich repeat kinase 2]
protection of 14‐3‐3σ from deuterium exchange upon peptide binding (14‐3‐3σ): identical areas of protection were observed upon LRRK2 binding; also recorded: the level of protection decreased relative to ERα
protection of 14‐3‐3σ from deuterium exchange at H8 upon peptide binding (14‐3‐3σ; pD 7.2, room temperature): protection was also observed at H8
binding affinity for 14‐3‐3 relative to ERα (14‐3‐3 [6]): lower binding affinity

tyrosine hydroxylase: protein partner titrated in a previous FRET study of 14‐3‐3 dimerization
14‐3‐3 dimer stability upon titration (14‐3‐3 [7]): increased dimer stability

B1: ERα_(581-595)pT594 15mer peptide of estrogen receptor α (peptide)
peptide: Ac-KYYITGEAEGFPA[pT]V-OH
notes: estrogen receptor α, residues 581-595, phosphorylated at T594 ('mode 3' C-terminal motif); source: synthetic peptide (Synpeptide Ltd)
binding result (14-3-3σ [8]): binds

B2: LRRK2_(928-942)pS935 15mer peptide of leucine-rich repeat kinase 2 (peptide)
peptide: NLQRHSNSLGPIFDH
HELM: PEPTIDE1{[ac].N.L.Q.R.H.S.N.[O=C([C@H](COP(=O)(O)O)N[*:1])[*:2]].L.G.P.I.F.D.H.[am]}$$$$V2.0
SMILES: CC[C@H](C)[C@H](NC(=O)[C@@H]1CCCN1C(=O)CNC(=O)[C@H](CC(C)C)NC(=O)[C@H](COP(=O)(O)O)NC(=O)[C@H](CC(N)=O)NC(=O)[C@H](CO)NC(=O)[C@H](Cc1c[nH]cn1)NC(=O)[C@H](CCCNC(=N)N)NC(=O)[C@H](CCC(N)=O)NC(=O)[C@H](CC(C)C)NC(=O)[C@H](CC(N)=O)NC(C)=O)C(=O)N[C@@H](Cc1ccccc1)C(=O)N[C@@H](CC(=O)O)C(=O)N[C@@H](Cc1c[nH]cn1)C(N)=O
notes: leucine-rich repeat kinase 2, residues 928-942, phosphorylated at S935; source: synthetic peptide (Synpeptide Ltd)
binding result (14-3-3σ [8]): binds
